# Measured values reported in patent US20020137929A1, “1 - (3-heterocyclylphenyl) isothiourea, -isourea, -guanidine and -amidine herbicidal agents” (Intellectual Property Department, BASF Aktiengesellschaft, priority 1998, published 2002).
# Assays:
# [1] = test system: ABUTH (Velvetleaf); experiment: Postemergence herbicidal evaluation; format: in vivo, Abutilon theophrasti; conditions: postemergence
# In short: (§1)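 Rate range approx. 0.0156–0.500 kg/ha. Foliar application at 40 psi to ~2-week seedlings; surfactant 0.5% TWEEN 20 in 50/50 acetone/water. Evaluation 4–5 wk post-treatment by 0–9 visual injury score, means of replicate tests.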
# [2] = test system: AMBEL (Ragweed, Common); experiment: Postemergence herbicidal evaluation; format: in vivo, Ambrosia artemisifolia; conditions: postemergence
# In short: as §1
# [3] = test system: IPOHE (Morningglory, Ivyleaf); experiment: Postemergence herbicidal evaluation; format: in vivo, Ipomoea hederacea; conditions: postemergence
# In short: as §1
# [4] = test system: ECHCG (Barnyardgrass); experiment: Postemergence herbicidal evaluation; format: in vivo, Echinochloa crus-galli; conditions: postemergence
# In short: as §1
# [5] = test system: SETVI (Foxtail, Green); experiment: Postemergence herbicidal evaluation; format: in vivo, Setaria viridis; conditions: postemergence
# In short: as §1
# [6] = test system: GLXMAW (Soybean, Williams); experiment: Postemergence herbicidal evaluation; format: in vivo, Glycine max, (L.) Merr. cv Williams; conditions: postemergence
# In short: as §1
# [7] = test system: TRZAWR (Wheat, Winter, cv Riband); experiment: Postemergence herbicidal evaluation; format: in vivo, Triticum aestivum; conditions: postemergence
# In short: as §1
# [8] = test system: CASOB (Sicklepod); experiment: Preemergence herbicidal evaluation; format: in vivo, Cassia obtusifolia; conditions: rated 4-5 weeks after treatment, rating scale 0-9
# In short: (§2)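 In this greenhouse assay, monocot and dicot seeds are planted in soil and treated prior to emergence with an aqueous acetone spray (about 0.0156-0.500 kg/ha). Plants are assessed visually against control on a 0-9 scale after 4-5 weeks.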
# [9] = test system: CHEAL (Lambsquarters, Common); experiment: Preemergence herbicidal evaluation; format: in vivo, Chenopodium album; conditions: rated 4-5 weeks after treatment, rating scale 0-9
# In short: as §2
# [10] = test system: GALAP (Galium); experiment: Preemergence herbicidal evaluation; format: in vivo, Galium aparine; conditions: rated 4-5 weeks after treatment, rating scale 0-9
# In short: as §2
# [11] = test system: IPOHE (Morningglory, Ivyleaf); experiment: Preemergence herbicidal evaluation; format: in vivo, Ipomoea hederacea; conditions: rated 4-5 weeks after treatment, rating scale 0-9
# In short: as §2
# [12] = test system: ECHCG (Barnyardgrass); experiment: Preemergence herbicidal evaluation; format: in vivo, Echinochloa crus-galli; conditions: rated 4-5 weeks after treatment, rating scale 0-9
# In short: as §2
# [13] = test system: ZEAMX (Corn, Field); experiment: Preemergence herbicidal evaluation; format: in vivo, Zea mays; conditions: rated 4-5 weeks after treatment, rating scale 0-9
# In short: as §2
structure (smiles),measurement,setting,value
"Cc1ccc(CN2C(=O)CSC2=Nc2cc(-n3c(=O)cc(C(F)(F)F)n(C)c3=O)c(F)cc2Cl)cc1C [Compound 147, 3-{4-Chloro-5-{[3-(3,4-dimethylbenzyl)-4-oxo-2-thiazolidinylidene]amino}-2-fluorophenyl}-1-methyl-6-(trifluoromethyl)-2,4(1H,3H)-pyrimidinedione]",herbicidal rating ABUTH,[1]; rate 0.0156 kg/ha,9.0
same,herbicidal rating ABUTH,[1]; rate 0.0313 kg/ha,9.0
same,herbicidal rating ABUTH,[1]; rate 0.0625 kg/ha,9.0
same,herbicidal rating AMBEL,[2]; rate 0.0156 kg/ha,6.0
same,herbicidal rating AMBEL,[2]; rate 0.0313 kg/ha,9.0
same,herbicidal rating AMBEL,[2]; rate 0.0625 kg/ha,7.0
same,herbicidal rating IPOHE,[3]; rate 0.0156 kg/ha,9.0
same,herbicidal rating IPOHE,[3]; rate 0.0313 kg/ha,9.0
same,herbicidal rating IPOHE,[3]; rate 0.0625 kg/ha,9.0
same,herbicidal rating ECHCG,[4]; rate 0.0156 kg/ha,1.0
same,herbicidal rating ECHCG,[4]; rate 0.0313 kg/ha,2.0
same,herbicidal rating ECHCG,[4]; rate 0.0625 kg/ha,1.0
same,herbicidal rating SETVI,[5]; rate 0.0156 kg/ha,1.0
same,herbicidal rating SETVI,[5]; rate 0.0313 kg/ha,1.0
same,herbicidal rating SETVI,[5]; rate 0.0625 kg/ha,2.0
same,herbicidal rating GLXMAW,[6]; rate 0.0156 kg/ha,5.5
same,herbicidal rating GLXMAW,[6]; rate 0.0313 kg/ha,5.5
same,herbicidal rating GLXMAW,[6]; rate 0.0625 kg/ha,6.0
same,herbicidal rating TRZAWR,[7]; rate 0.0156 kg/ha,2.5
same,herbicidal rating TRZAWR,[7]; rate 0.0313 kg/ha,3.5
same,herbicidal rating TRZAWR,[7]; rate 0.0625 kg/ha,4.0
same,Preemergence herbicidal rating CASOB,[8]; rate 0.0156 kg/ha,0.0
same,Preemergence herbicidal rating CASOB,[8]; rate 0.0313 kg/ha,0.0
same,Preemergence herbicidal rating CASOB,[8]; rate 0.0625 kg/ha,0.0
same,Preemergence herbicidal rating CASOB,[8]; rate 0.1250 kg/ha,0.0
same,Preemergence herbicidal rating CASOB,[8]; rate 0.2500 kg/ha,5.0
same,Preemergence herbicidal rating CHEAL,[9]; rate 0.0156 kg/ha,0.0
same,Preemergence herbicidal rating CHEAL,[9]; rate 0.0313 kg/ha,0.0
same,Preemergence herbicidal rating CHEAL,[9]; rate 0.0625 kg/ha,6.0
same,Preemergence herbicidal rating CHEAL,[9]; rate 0.1250 kg/ha,9.0
same,Preemergence herbicidal rating CHEAL,[9]; rate 0.2500 kg/ha,9.0
same,Preemergence herbicidal rating GALAP,[10]; rate 0.0156 kg/ha,0.0
same,Preemergence herbicidal rating GALAP,[10]; rate 0.0313 kg/ha,0.0
same,Preemergence herbicidal rating GALAP,[10]; rate 0.0625 kg/ha,0.0
same,Preemergence herbicidal rating GALAP,[10]; rate 0.1250 kg/ha,1.0
same,Preemergence herbicidal rating GALAP,[10]; rate 0.2500 kg/ha,1.0
same,Preemergence herbicidal rating IPOHE,[11]; rate 0.0156 kg/ha,0.0
same,Preemergence herbicidal rating IPOHE,[11]; rate 0.0313 kg/ha,0.0
same,Preemergence herbicidal rating IPOHE,[11]; rate 0.0625 kg/ha,0.0
same,Preemergence herbicidal rating IPOHE,[11]; rate 0.1250 kg/ha,0.0
same,Preemergence herbicidal rating IPOHE,[11]; rate 0.2500 kg/ha,0.0
same,Preemergence herbicidal rating ECHCG,[12]; rate 0.0156 kg/ha,0.0
same,Preemergence herbicidal rating ECHCG,[12]; rate 0.0313 kg/ha,0.0
same,Preemergence herbicidal rating ECHCG,[12]; rate 0.0625 kg/ha,0.0
same,Preemergence herbicidal rating ECHCG,[12]; rate 0.1250 kg/ha,0.0
same,Preemergence herbicidal rating ECHCG,[12]; rate 0.2500 kg/ha,0.0
same,Preemergence herbicidal rating ZEAMX,[13]; rate 0.0156 kg/ha,1.0
same,Preemergence herbicidal rating ZEAMX,[13]; rate 0.0313 kg/ha,1.0
same,Preemergence herbicidal rating ZEAMX,[13]; rate 0.0625 kg/ha,0.0
same,Preemergence herbicidal rating ZEAMX,[13]; rate 0.1250 kg/ha,1.0
same,Preemergence herbicidal rating ZEAMX,[13]; rate 0.2500 kg/ha,2.0
"Cn1c(C(F)(F)F)cc(=O)n(-c2cc(N=C3SCC(=O)N3Cc3ccc(Br)cc3)c(Cl)cc2F)c1=O [Compound 148, 3-{5-{[3-(p-Bromobenzyl)-4-oxo-2-thiazolidinyl-idene]amino}-4-chloro-2-fluorophenyl}-1-methyl-6-(trifluoromethyl)-2,4(1H,3H)-pyrimidinedione]",herbicidal rating ABUTH,[1]; rate 0.0156 kg/ha,9.0
same,herbicidal rating ABUTH,[1]; rate 0.0313 kg/ha,9.0
same,herbicidal rating ABUTH,[1]; rate 0.0625 kg/ha,9.0
same,herbicidal rating AMBEL,[2]; rate 0.0156 kg/ha,9.0
same,herbicidal rating AMBEL,[2]; rate 0.0313 kg/ha,7.0
same,herbicidal rating AMBEL,[2]; rate 0.0625 kg/ha,9.0
same,herbicidal rating IPOHE,[3]; rate 0.0156 kg/ha,9.0
same,herbicidal rating IPOHE,[3]; rate 0.0313 kg/ha,9.0
same,herbicidal rating IPOHE,[3]; rate 0.0625 kg/ha,9.0
same,herbicidal rating ECHCG,[4]; rate 0.0156 kg/ha,2.0
same,herbicidal rating ECHCG,[4]; rate 0.0313 kg/ha,3.0
same,herbicidal rating ECHCG,[4]; rate 0.0625 kg/ha,3.0
same,herbicidal rating SETVI,[5]; rate 0.0156 kg/ha,2.0
same,herbicidal rating SETVI,[5]; rate 0.0313 kg/ha,2.0
same,herbicidal rating SETVI,[5]; rate 0.0625 kg/ha,4.0
same,herbicidal rating GLXMAW,[6]; rate 0.0156 kg/ha,4.5
same,herbicidal rating GLXMAW,[6]; rate 0.0313 kg/ha,5.0
same,herbicidal rating GLXMAW,[6]; rate 0.0625 kg/ha,6.5
same,herbicidal rating TRZAWR,[7]; rate 0.0156 kg/ha,2.5
same,herbicidal rating TRZAWR,[7]; rate 0.0313 kg/ha,3.0
same,herbicidal rating TRZAWR,[7]; rate 0.0625 kg/ha,4.0
same,Preemergence herbicidal rating CASOB,[8]; rate 0.0313 kg/ha,0.0
same,Preemergence herbicidal rating CASOB,[8]; rate 0.0625 kg/ha,0.0
same,Preemergence herbicidal rating CASOB,[8]; rate 0.1250 kg/ha,0.0
same,Preemergence herbicidal rating CASOB,[8]; rate 0.2500 kg/ha,0.0
same,Preemergence herbicidal rating CHEAL,[9]; rate 0.0313 kg/ha,6.0
same,Preemergence herbicidal rating CHEAL,[9]; rate 0.0625 kg/ha,9.0
same,Preemergence herbicidal rating CHEAL,[9]; rate 0.1250 kg/ha,9.0
same,Preemergence herbicidal rating CHEAL,[9]; rate 0.2500 kg/ha,9.0
same,Preemergence herbicidal rating GALAP,[10]; rate 0.0313 kg/ha,0.0
same,Preemergence herbicidal rating GALAP,[10]; rate 0.0625 kg/ha,0.0
same,Preemergence herbicidal rating GALAP,[10]; rate 0.1250 kg/ha,0.0
same,Preemergence herbicidal rating GALAP,[10]; rate 0.2500 kg/ha,0.0
same,Preemergence herbicidal rating IPOHE,[11]; rate 0.0313 kg/ha,0.0
same,Preemergence herbicidal rating IPOHE,[11]; rate 0.0625 kg/ha,0.0
same,Preemergence herbicidal rating IPOHE,[11]; rate 0.1250 kg/ha,0.0
same,Preemergence herbicidal rating IPOHE,[11]; rate 0.2500 kg/ha,0.0
same,Preemergence herbicidal rating ECHCG,[12]; rate 0.0313 kg/ha,0.0
same,Preemergence herbicidal rating ECHCG,[12]; rate 0.0625 kg/ha,0.0
same,Preemergence herbicidal rating ECHCG,[12]; rate 0.1250 kg/ha,0.0
same,Preemergence herbicidal rating ECHCG,[12]; rate 0.2500 kg/ha,0.0
same,Preemergence herbicidal rating ZEAMX,[13]; rate 0.0313 kg/ha,0.0
same,Preemergence herbicidal rating ZEAMX,[13]; rate 0.0625 kg/ha,0.0
same,Preemergence herbicidal rating ZEAMX,[13]; rate 0.1250 kg/ha,0.0
same,Preemergence herbicidal rating ZEAMX,[13]; rate 0.2500 kg/ha,1.0
